From patent US20220370470A1 (WisTa Laboratories Ltd., priority 2019, published 2022)
Where a name gives a salt, the structure may show the parent alone.

Experiments:
α-synuclein = assay: Immunohistochemistry of α-synuclein, wild-type mice; assay type: in vivo; parameters: key: ‘—’ indicates no effect; conditions: LMTM 5 or 15 mg/kg/day alone or following chronic rivastigmine 0.1 or 0.5 mg/kg/day, approximate rounded percentages
Procedure: (§1) Wild-type and L1 mice (n=7-16 for each group) were pre-treated with rivastigmine (0.1 or 0.5 mg/kg/day) or memantine (2 or 20 mg/kg/day) or vehicle for 5 weeks by gavage. For the following 6 weeks, LMTM (5 and 15 mg/kg) or vehicle were added to this daily treatment regime, also by gavage. Animals were tested behaviourly during weeks 10 and 11 using a problem solving task in the open field water maze and then sacrificed for immunohistochemical and other tissue analyses.
(§2) Translating doses from mice to humans requires consideration of a number of factors. […] The higher dose of 15 mg/kg/day is generally required for LMTM to be fully effective in the L1 mouse model (Melis et al., 2015a). […] Tissue sectioned for immunohistochemistry was labelled with antibody and processed using Image J to determine protein expression densitometrically. Data are presented as Z-score transformations without units.

[1] = tested on: acetylcholine (ACh) levels in hippocampus; assay: ACh levels in hippocampus, microdialysis probe and HPLC, wild-type mice; assay type: in vivo
Procedure: For measurement of acetylcholine (ACh) levels in hippocampus, animals (wild-type or L1) were treated with LMTM (5 mg/kg/day for 2 weeks) after prior treatment for 2 weeks with or without rivastigmine (0.5 mg/kg/day). Rivastigmine was administered subcutaneously with an Alzet minipump whereas LMTM was administered by oral gavage. Levels of ACh were measured in hippocampus using an implanted microdialysis probe and HPLC analysis of the extracellular fluid.
Data are presented as group averages and standard errors of mean and were analysed using parametric statistics, with alpha set to 0.05.

[2] = tested on: ACh levels in the hippocampus; assay: Hippocampal ACh levels with scopolamine blocking M2/M4 negative feedback receptors; assay type: in vivo, wild type mice
mitochondrial complex IV = assay: Mitochondrial complex IV activity, wild-type mice; assay type: in vivo; conditions: LMTM 5 or 15 mg/kg/day alone or following chronic rivastigmine 0.1 or 0.5 mg/kg/day, approximate rounded percentages
Procedure: as §1

[3] = tested on: SNARE complex proteins (SNAP25, syntaxin and VAMP2); assay: Immunohistochemistry of SNARE complex proteins, wild-type mice; assay type: in vivo; parameters: key: ‘—’ indicates no effect; conditions: LMTM 5 or 15 mg/kg/day alone or following chronic rivastigmine 0.1 or 0.5 mg/kg/day, approximate rounded percentages
Procedure: as §1, §2

synaptophysin = assay: Immunohistochemistry of synaptophysin, wild-type mice; assay type: in vivo
Procedure: FIG. 1. Treatment effects of LMTM alone or following chronic pretreatment with rivastigmine in wild-type mice on hippocampal levels of acetylcholine (A) or synaptophysin levels measured immunohistochemically as the mean in hippocampus, visual cortex, diagonal band and septum (B). (**, p<0.01; ***, p<0.001).
as §1, §2

wild-type mice = assay: Behaviour, problem solving task in the open field water maze, wild-type mice; assay type: in vivo; conditions: LMTM 5 or 15 mg/kg/day alone or following chronic rivastigmine 0.1 or 0.5 mg/kg/day, approximate rounded percentages
Procedure: as §1

SMILES	α-Synuclein (α-synuclein)	reduction in basal ACh levels in hippocampus ([1]; LMTM after prior treatment with rivastigmine (0.5 mg/kg/day)) [%]	increase in basal ACh levels in hippocampus ([1]; LMTM treatment alone (5 mg/kg/day for 2 weeks), significant) [fold]	increase in ACh levels in scopolamine experiments ([2]; wild type mice, scopolamine blocking M2/M4 negative feedback receptors, 100 nanomolar rivastigmine in perfusion fluid)	Mitochondrial complex IV (mitochondrial complex IV)	SNARE complex [3]	change in mean synaptophysin levels (synaptophysin; LMTM given against a background of prior treatment with rivastigmine)	increase in mean synaptophysin levels (synaptophysin; hippocampus, visual cortex, diagonal band and septum, LMTM treatment alone) [fold]	Behaviour (wild-type mice)	rise in ACh levels ([2]; hippocampus, scopolamine 1 μM added to the perfusion fluid containing 100 nanomolar rivastigmine)
CN(C)c1ccc2c(c1)Sc1cc(N(C)C)ccc1N2 [LMTM, hydromethylthionine mesylate]	—	30	2	less than that seen with rivastigmine alone	did not show any increase and —	—	statistically significant reduction of the same magnitude	3	not associated with improvement in spatial recognition memory and —	
CN1[C@@H]2C[C@@H](OC(=O)[C@H](CO)c3ccccc3)C[C@H]1[C@@H]1O[C@@H]12 [scopolamine, reference compound]										3-5 fold
